Biological target: cGMP-specific 3',5'-cyclic phosphodiesterase (Homo sapiens, UniProt O76074)
Assay: Inhibition Assay: To determine their in vitro action on human PDE 5, the test substances are dissolved in 100% DMSO and serially diluted. Typically, dilution series (1:3) from 200 uM to 0.091 uM are prepared (resulting final concentrations in the test: 4 uM to 0.0018 uM). In each case 2 ul of the diluted substance solutions are placed into the wells of microtitre plates (Isoplate-96/200W; Perkin Elmer). Subsequently, 50 ul of a dilution of the above-described PDE 5 preparation are added. The dilution of the PDE 5 preparation is chosen such that during the later incubation less than 70% of the substrate are converted (typical dilution: 1:100; dilution buffer: 50 mM Tris/hydrochloric acid pH 7.5, 8.3 mM magnesium chloride, 1.7 mM EDTA, 0.2% BSA). The substrate, [8-3H] cyclic guanosine-3',5'-monophosphate (1 uCi/ul; Perkin Elmer) is diluted 1:2000 with assay buffer (50 mM tris/hydrochloric acid pH 7.5, 8.3 mM magnesium chloride, 1.7 mM EDTA) to a concentration of 0.0005 uCi/ul. By addition of 50 ul (0.025 uCi) of the diluted substrate, the enzyme reaction is finally started. The test mixtures are incubated at room temperature for 60 min and the reaction is stopped by adding 25 ul of a suspension of 18 mg/ml yttrium scintillation proximity beads in water (phosphodiesterase beads for SPA assays, RPNQ 0150, Perkin Elmer). […]

IC50: 570 nM
SMILES: CC1(C)C(=O)Nc2nc(-c3nn(Cc4ccccc4F)c4ncc(F)cc34)nc(CNC(=O)C3CC3)c21
